Consider 14 compounds from patent US20080280891A1, “Anti-cancer agents and uses thereof” (Locus Pharmaceuticals, Inc., priority 2006, published 2008).

Experiment [1] has as its system Jurkat T-cell leukemic cells. As to the kind of experiment: Cell cycle assay (Example 163), G2/M block in Jurkat cells. As to conditions: Homo sapiens, Jurkat, 24 h, flow cytometry (PI), Table 2. Format: cell-based. Here is the method: (§1) MCF-7 breast cancer cells and Jurkat T-cell leukemic cells were grown (and maintained) in EMEM and RPMI media, respectively, containing 10% fetal calf serum.
Test agents were added a concentration of 0.1 μM. Twenty-fours after test agent addition, cells were analyzed for cell cycle status as described below.
(§2) Cell cycle status was analyzed by flow cytometry. Briefly, cells were collected and washed with FACs buffer (Pharmingen) and resuspended and fixed in 1 mL of 80% ethanol for 1 hr. Cells were washed with FACs buffer and resuspended in propidium iodide(PI)/RNase staining buffer (Pharmingen). PI is a fluorescent dye that labels nucleic acids such as DNA. The fluorescence within a cell (in the presence of PI) is proportional to the amount of DNA within a cell. The cell content of DNA is an indices of status in the cell cycle. […] Cells in the S phase have DNA content that lies between these extremes.
(§3) For testing of cell cycle effects of test agents the percentage of cells within the G1 and G2/M phase were measured.

Experiment [2] has as its system MCF-7 breast cancer cells. As to the kind of experiment: Cell cycle assay (Example 163), G2/M block in MCF-7 cells. The experiment is classed as cell-based. The note with it: Homo sapiens, MCF7, 24 h, flow cytometry (PI), Table 2. The protocol:
as §1
Cells were allowed to adhere for 24 hrs. After adherence, cell culture media was changed to that containing 0.5% FCS. Thirty minutes post-media change, test compounds were added at a concentration of 1 μM. Twenty-fours after test agent addition, cells were analyzed for cell cycle status as described below.
as §2, §3
On the technique in general: In flow cytometry, cells or beads pass a laser one at a time.

Turning to `CC(=O)Nc1cc(C(=O)c2ccncc2)cc(-c2cccc3[nH]ccc23)c1` [N-[3-(1H-Indol-4-yl)-5-(pyridine-4-carbonyl)-phenyl]-acetamide], the activation at 0.1 µM in experiment [1] is ≥ 50%. For the same compound, the activation at 1 µM in experiment [2] is ≥ 50%.

As to `CS(=O)(=O)Nc1cc(C(=O)c2ccncc2)cc(-c2cccc3[nH]ccc23)c1` [N-[3-(1H-Indol-4-yl)-5-(pyridine-4-carbonyl)-phenyl]-methanesulfonamide], the activation at 0.1 µM in experiment [1] is ≥ 50%. Besides, the activation at 1 µM in experiment [2] is ≥ 50%.

For the compound `CC(=O)Nc1cc(-c2nc3ncccc3o2)cc(-c2cccc3[nH]ccc23)c1` [N-[3-(1H-Indol-4-yl)-5-oxazolo[4,5-b]pyridin-2-yl-phenyl]-acetamide], in experiment [1], the activation at 0.1 µM was < 50%. Further, the activation at 1 µM in experiment [2] is ≥ 50%.

`Cc1cc(C(=O)c2cc(NS(C)(=O)=O)cc(-c3cccc4[nH]ccc34)c2)cc(Cl)n1` [N-[3-(2-Chloro-6-methyl-pyridine-4-carbonyl)-5-(1H-indol-4-yl)-phenyl]-methanesulfonamide]: the activation at 0.1 µM in experiment [1] is ≥ 50%. Further, the activation at 1 µM in experiment [2] was ≥ 50%.

As for `CC(=O)Nc1cc(C(=O)c2ccnc(Cl)c2)cc(-c2cccc3[nH]ccc23)c1` [N-[3-(2-Chloro-pyridine-4-carbonyl)-5-(1H-indol-4-yl)-phenyl]-acetamide], the activation at 0.1 µM in experiment [1] was ≥ 50%. Also, in experiment [2], the activation at 1 µM was ≥ 50%.

On to `CS(=O)(=O)Nc1cc(C(=O)c2ccnc(Cl)c2)cc(-c2cccc3[nH]ccc23)c1` [N-[3-(2-Chloro-pyridine-4-carbonyl)-5-(1H-indol-4-yl)-phenyl]-methanesulfonamide], for which, in experiment [1], the activation at 0.1 µM is ≥ 50%. Also, the activation at 1 µM in experiment [2] was ≥ 50%.

Regarding `CS(=O)(=O)Nc1cc(C(=O)c2cccnc2)cc(-c2cccc3[nH]c(C#N)cc23)c1` [N-[3-(2-Cyano-1H-indol-4-yl)-5-(pyridine-3-carbonyl)-phenyl]-methanesulfonamide], the activation at 0.1 µM in experiment [1] is ≥ 50%. In addition, the activation at 1 µM in experiment [2] was ≥ 50%.

With `CC(=O)Nc1cc(Br)cc(C(=O)c2cccnc2)c1` [N-[3-Bromo-5-(pyridine-3-carbonyl)-phenyl]-acetamide], the activation at 0.1 µM in experiment [1] is ≥ 50%. Further, in experiment [2], the activation at 1 µM is ≥ 50%.

In the case of `O=C(c1cccnc1)c1cc(-c2cccc3[nH]ccc23)ccc1O` [[2-Hydroxy-5-(1H-indol-4-yl)-phenyl]-pyridin-3-yl-methanone], the activation at 0.1 µM in experiment [1] is ≥ 50%. For the same compound, the activation at 1 µM in experiment [2] was ≥ 50%.

On to `COC(=O)Nc1cc(Nc2cccnc2)cc(-c2cccc3[nH]ccc23)c1` [[3-(1H-Indol-4-yl)-5-(pyridin-3-ylamino)-phenyl]-carbamic acid methyl ester], for which, in experiment [1], the activation at 0.1 µM was < 50%. For the same compound, in experiment [2], the activation at 1 µM is ≥ 50%.

As for `O=C(Nc1cc(C(=O)c2cccnc2)cc(-c2cccc3[nH]ccc23)c1)OCc1ccccc1` [[3-(1H-Indol-4-yl)-5-(pyridine-3-carbonyl)-phenyl]-carbamic acid benzyl ester], the activation at 0.1 µM in experiment [1] is < 50%. Besides, in experiment [2], the activation at 1 µM was ≥ 50%.

`O=C(c1cccnc1)c1cc(O)cc(-n2ccc3cc(F)ccc32)c1` [[3-(5-Fluoro-indol-1-yl)-5-hydroxy-phenyl]-pyridin-3-yl-methanone]: the activation at 0.1 µM in experiment [1] is ≥ 50%. Further, in experiment [2], the activation at 1 µM was ≥ 50%.

In the case of `COc1cc(C(=O)c2cc(N)cc(-c3cccc4[nH]ccc34)c2)ccn1` [[3-Amino-5-(1H-indol-4-yl)-phenyl]-(2-methoxy-pyridin-4-yl)-methanone], the activation at 0.1 µM in experiment [1] was ≥ 50%. The activation at 1 µM in experiment [2] was ≥ 50%.

For `COc1ccc(C(=O)c2cc(O)cc(-c3cccc4[nH]ccc34)c2)cn1` [[3-Hydroxy-5-(1H-Indol-4-yl)-phenyl]-(6-methoxy-pyridin-3-yl)-methanone], in experiment [1], the activation at 0.1 µM is ≥ 50%. In experiment [2], the activation at 1 µM is ≥ 50%.
